Converted amounts (≈) assume the structure as drawn. Read-outs that look alike come from different tables or passages of the source.
Key:
[1] = system: M. tuberculosis H37Rv; assay: microbe, parasite or virus in culture; assay type: cell-based; conditions: for MIC90 / MIC: Mycobacterium tuberculosis, H37RV, read-out: M. tuberculosis MIC90
[2] = system: Vero cells; conditions: CC50 (Vero) / MIC90 (replicating M. tuberculosis H37Rv)
[3] = in vitro; conditions: African green monkey, VERO cells CC50, 72 h exposure, ATP readout
[4] = system: M. bovis BCG cultures; assay type: cell-based, Mycobacterium bovis BCG
[5] = system: non-replicating M. tuberculosis H37Rv; assay type: cell-based, Mycobacterium tuberculosis; conditions: MBC90 NR / MIC90 replicating
[6] = system: M. tuberculosis H37Rv in infected mouse Bone Marrow-Derived Macrophages; assay type: cell-based, Mycobacterium tuberculosis; conditions: BMDM; for Reduction of the burden of intracellular bacteria: 32 × MIC
[7] = molecular target: Mrx2WT (Mycobacterium tuberculosis, UniProt O53193); assay: Mrx2 enzyme kinetic assay; assay type: biochemical, M. tuberculosis; conditions: 10 μM compound, 30 μM enzyme, absorbance at 412 nm
Sequence of Mrx2WT (O53193 whole entry): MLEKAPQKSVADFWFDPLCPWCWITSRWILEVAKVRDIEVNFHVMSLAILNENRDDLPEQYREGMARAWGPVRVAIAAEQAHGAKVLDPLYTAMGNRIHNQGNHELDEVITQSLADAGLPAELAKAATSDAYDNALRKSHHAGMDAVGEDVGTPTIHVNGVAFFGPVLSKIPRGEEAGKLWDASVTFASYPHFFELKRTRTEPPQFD

[8] = system: Mrx2 mutants; assay type: biochemical, M. tuberculosis; conditions: enzyme kinetic assay
[9] = system: sigH and mrx2 expression in M. tuberculosis H37Rv; assay: sigH and mrx2 transcriptional levels by qRT-PCR upon compound exposure; assay type: cell-based, Mycobacterium tuberculosis; conditions: 1×, 2×, 4×, 8× MIC90; different time points

**Q.** Which MIC90 [1] does the source give for O=[N+]([O-])c1cc2c(ccc3c2ccc2cc([N+](=O)[O-])oc23)o1 [nNF-C1, 2,7-dinitronaphtho[1,2-b:6,5-b']difuran] here?
**A.** 0.125 µg/mL (≈ 0.419 µM)

**Q.** For O=[N+]([O-])c1cc2c(ccc3cc(Br)ccc32)o1 [nNF-C6, 7-Bromo-2-nitronaphtho[2,1-b]furan], which MIC90 [1] is on record?
**A.** 0.5 µg/mL (≈ 1.71 µM)

**Q.** What about the “Selectivity index (SI)” value [2] of the same compound?
**A.** 182.6

**Q.** With CCOC(=O)COc1ccc2ccc3oc([N+](=O)[O-])cc3c2c1 [nNF-C20, Ethyl 2-({2-nitronaphtho[2,1-b]furan-8-yl}oxy)acetate] as the compound, how does the MIC [1] read?
**A.** 0.25 µg/mL (≈ 0.793 µM)

**Q.** And the CC50 [3]?
**A.** 9.3 µg/mL (≈ 29.5 µM)

**Q.** Which MIC [1] does the source give for O=[N+]([O-])c1cc2c(ccc3c4cc([N+](=O)[O-])oc4ccc23)o1 [nNF-C3, 2,7-Dinitronaphtho[2,1-b:6,5-b']difuran] here?
**A.** 1 µg/mL (≈ 3.35 µM)

**Q.** Which MIC90 [1] does the source give for COc1ccc2c(ccc3oc([N+](=O)[O-])cc32)c1 [nNF-C16, 7-Methoxy-2-nitronaphtho[2,1-b]furan] here?
**A.** 0.0625 µg/mL (≈ 0.257 µM)

**Q.** And the CC50 [3]?
**A.** 0.3 µg/mL (≈ 1.23 µM)

**Q.** For N#Cc1ccc2c(ccc3oc([N+](=O)[O-])cc32)c1 [nNF-C5, 2-Nitronaphtho[2,1-b]furan-7-carbonitrile], which MIC90 [1] is on record?
**A.** 0.25 µg/mL (≈ 1.05 µM)

**Q.** And the CC50 [3]?
**A.** 12.5 µg/mL (≈ 52.5 µM)

**Q.** Which MIC90 [1] does the source give for COc1cc2ccc3oc([N+](=O)[O-])cc3c2cc1OC [nNF-C8, 7,8-Dimethoxy-2-nitronaphtho[2,1-b]furan] here?
**A.** 0.125 µg/mL (≈ 0.457 µM)

**Q.** What about the CC50 [3] of the same compound?
**A.** 0.4 µg/mL (≈ 1.46 µM)

**Q.** Which results are given for Cc1c([N+](=O)[O-])oc2ccc3ccccc3c12 [nNF-C14, 1-Methyl-2-nitronaphtho[2,1-b]furan]?
**A.** MIC90 [1]: 2 µg/mL (≈ 8.8 µM); Selectivity index (SI) [2]: >50

**Q.** Which MIC90 [1] does the source give for CCCCc1c([N+](=O)[O-])oc2ccc3ccccc3c12 [nNF-C12, 1-Butyl-2-nitronaphtho[2,1-b]furan] here?
**A.** 4 µg/mL (≈ 14.9 µM)

**Q.** What about the CC50 [3] of the same compound?
**A.** 73.5 µg/mL (≈ 273 µM)

**Q.** Which results are given for “1-Butyl-2-nitronaphtho[2,1-b]furan [nNF-C11]”?
**A.** MIC90 R[…]. tuberculosis μM (median) ([1]; REMA, H37Rv, median): 32.89 µM; MIC90 R[…]. tuberculosis μg/ml (median) ([1]; REMA, H37Rv, median): 8 µg/mL; MIC90 R[…]. tuberculosis μg/ml (range) ([1]; REMA, H37Rv, range): 8 to 16 µg/mL; M. tuberculosis MIC90 ([1]; value used for SI in Table 2): 8 µg/mL

**Q.** With COc1ccc2c(ccc3oc([N+](=O)[O-])c(C)c32)c1 [nNF-C7, 7-Methoxy-1-methyl-2-nitronaphtho[2,1-b]furan] as the compound, how does the MIC90 [1] read?
**A.** 4 µg/mL (≈ 15.5 µM)

**Q.** What about the CC50 [3] of the same compound?
**A.** 67.5 µg/mL (≈ 262 µM)

**Q.** Which “NO release in treated M. bovis BCG cultures” value [4] does the source give for O=[N+]([O-])c1cn2c(n1)OC[C@@H](OCc1ccc(OC(F)(F)F)cc1)C2 [PA-824, Pretomanid, reference compound] here?
**A.** significant NO release in a concentration dependent manner

**Q.** What does the source list for COC(=O)c1ccc2c(ccc3oc([N+](=O)[O-])cc32)c1 [nNF-C4, Methyl 2-nitronaphtho[2,1-b]furan-7-carboxylate]?
**A.** MIC90 [1]: 0.125 µg/mL (≈ 0.461 µM); Activity against non-replicating M. tuberculosis in the charcoal assay relative to MIC90 against replicating bacteria [5]: 4–8 times; Reduction of the number of intracellular M. tuberculosis bacteria ([6]; 2 times of MIC90 (0.25 μg/ml)): ca. 2 logs; Reduction of the burden of intracellular bacteria [6]: more than 4 logs; NO release in treated M. bovis BCG cultures [4]: significant NO release in a concentration dependent manner; Nitrite levels relative to nNF-C2 [4]: ~4 times

**Q.** What does the source list for COc1ccc2ccc3oc([N+](=O)[O-])cc3c2c1Br [nNF-C18, 9-Bromo-8-methoxy-2-nitronaphtho[2,1-b]furan]?
**A.** MIC90 [1]: 0.25 µg/mL (≈ 0.776 µM); CC50 [3]: 2.2 µg/mL (≈ 6.83 µM)

**Q.** Which results are given for CCc1c([N+](=O)[O-])oc2ccc3ccccc3c12 [nNF-C17, 1-Ethyl-2-nitronaphtho[2,1-b]furan]?
**A.** MIC90 [1]: 2 µg/mL (≈ 8.29 µM); CC50 [3]: 55.1 µg/mL (≈ 228 µM)

**Q.** What does the source list for CO[C@H]1/C=C/O[C@@]2(C)Oc3c(C)c(O)c4c(O)c(c(/C=N/N5CCN(C)CC5)c(O)c4c3C2=O)NC(=O)/C(C)=C\C=C\[C@H](C)[C@H](O)[C@@H](C)[C@@H](O)[C@@H](C)[C@H](OC(C)=O)[C@@H]1C [RIF, Rifampicin, reference compound]?
**A.** MIC [1]: 0.01 µg/mL (≈ 0.0122 µM); Concentration needed to achieve a similar level (ca. 2 logs) of intracellular killing ([6]; 32 times its MIC): 0.32 μg/ml; Selectivity index (SI) [2]: 7824.1; CC50 [3]: 78.2 µg/mL (≈ 95 µM)

**Q.** Which MIC90 [1] does the source give for O=[N+]([O-])c1cc2cc3ccc4oc([N+](=O)[O-])cc4c3cc2o1 [nNF-C2, 2,8-Dinitronaphtho[2,1-b:7,6-b']difuran] here?
**A.** 0.0625 µg/mL (≈ 0.21 µM)

**Q.** What about the “Activity against non-replicating M. tuberculosis in the charcoal assay relative to MIC90 against replicating bacteria” value [5] of the same compound?
**A.** 4–8 times

**Q.** And the “Reduction of the number of intracellular M. tuberculosis bacteria” value ([6]; 4 times of MIC90 (0.25 μg/ml))?
**A.** ca. 2 logs

**Q.** And the “Reduction of the burden of intracellular bacteria” value [6]?
**A.** more than 4 logs

**Q.** And the “Metabolism of the compound by Mrx2WT” value [7]?
**A.** completely metabolized

**Q.** What about the “Activity of Mrx2T25R, Mrx2S46R, Mrx2Y91S, Mrx2H140D and Mrx2R198G against the compound” value [8] of the same compound?
**A.** only residual activity

**Q.** And the “NO release in treated M. bovis BCG cultures” value [4]?
**A.** significant NO release in a concentration dependent manner

**Q.** What about the “Induction of sigH and mrx2 expression” value [9] of the same compound?
**A.** time and concentration-dependant induction of both genes

— paper PMC9841431 (Nucleic Acids Research, 2022)
